Experimental data taken from EP0076430A1, “Compositions having antimicrobial activity” (MEDEA RESEARCH S.r.l., priority 1981, dated 1983).
Values after ≈ are worked out from the molar mass of the structure shown.

Tests used:
Bacillaceae = assay: Minimum inhibitory concentration (MIC), broth dilution; type: cell-based; settings: 24 h; strain 1722
Description: (§1) Different bacterial species isolated from patients are employed.
(§2) Compounds AB5 and AB6 are dissolved in ethanol (ethyl alcohol 95°, C. Erba) and all the subsequent dilutions performed in distilled water. The chlorhexidine is diluted from the commercial product already dissolved in distilled water.
(§3) The broth dilution is employed to assess MIC values for all strains. Sterile microtiter plates with U bottom with 96 wells are employed. 0.1 Ml of liquid medium (tryptose Roche broth) are put in each well, the plates are kept at -20° and, before use, at room temperature.
(§4) The disinfectant agent is put in the wells of the row 2 at a concentration of 4000 mcg/ml (real 2000 mcg/ml) and then with a 100 µl micro- pipette dilutions are performed from row 2 to row 11.
(§5) The row 1 is the control of the medium and the row 12 is the control for the fertility of the medium itself.
(§6) After having performed the dilutions, 0.01 ml of a 24 hrs bacterial broth culture (previously diluted at 10^-4 for Gram-negative strains and 10-2 for Gram-positive ones) are placed in all wells, from the rows 2 to 12. After the inoculation, the plate is hermetical ly sealed with adhesive transparent band and an hole is done with a needle. The plates are kept at 35° for 24 hours and a macroscopic reading is carried out; in case of non uniform reading, taking place only for chlorhexidine, the cultures from the wells are plated on agar-heart-brain medium (Sclavo) through Dinatech apparatus (head "Inoculum 96") and the reading of the growth is carried out in the following 24 hours.

E.coli = assay: as above; type: cell-based; settings: Escherichia coli, 24 h
Description: as §1, §2, §3, §4, §5, §6

Enterobacter = assay: as above; type: cell-based; settings: 24 h, strain 2643
Description: as §1, §2, §3, §4, §5, §6

Indole-positive Proteus [1] = assay: as above; type: cell-based; settings: 24 h
Description: as §1, §2, §3, §4, §5, §6

Pseudomonas aeruginosa [2] = assay: as above; type: cell-based; settings: 24 h
Description: as §1, §2, §3, §4, §5, §6

Salmonella sp. [3] = assay: as above; type: cell-based; settings: 24 h, strain 2482
Description: as §1, §2, §3, §4, §5, §6

Serratia marcescens [4] = assay: as above; type: cell-based; settings: 24 h, strain 1814
Description: as §1, §2, §3, §4, §5, §6

Staph. aureus [5] = assay: as above; type: cell-based; settings: Staphylococcus aureus, 24 h; strain 2672
Description: as §1, §2, §3, §4, §5, §6

E. coli = assay: Bactericide activity at different contact times; type: cell-based; parameters: key to Bactericide action (growth / no growth): + = growth; - = no growth; settings: 100 p.p.m.
Description: as §1, §2
(§7) It is assessed through Dinatech apparatus with "Inoculum 96" head.
(§8) Chemical compounds at established concentra tions are placed in amount of 1 ml in the con tainers, the bacterial inoculum is then added in amount of 0.1 ml (24 hrs culture) and at pre-established times (3,5,10,30,60 and 120 mi nutes), through the head, the mixture compound/ disinfectant agent is transferred in solid medium (agar-heart-brain medium). After incubation at 35°C for 24 hours, the reading is carried out. The tests are repeated in presence of human serum at the concentration of 10%.

Indole-positive Proteus [6] = assay: Bactericide activity at different contact times; type: cell-based; parameters: key to Bactericide action (growth / no growth): + = growth; - = no growth; settings: 100 p.p.m.
Description: as §1, §2, §7, §8

Serratia marcescens [7] = assay: Bactericide activity at different contact times; type: cell-based; parameters: key to Bactericide action (growth / no growth): + = growth; - = no growth; settings: 100 p.p.m.
Description: as §1, §2, §7, §8

Pseudomonas aeruginosa [8] = assay: Bactericide activity at different contact times; type: cell-based; parameters: key to Bactericide action (growth / no growth) / Bactericide activity (growth / no growth), serum interference test: + = growth; - = no growth; settings: 100 p.p.m.
Description: as §1, §2, §7, §8

B. subtilis = assay: Bactericide activity at different contact times; type: cell-based; parameters: key: + = growth; - = no growth; settings: 100 p.p.m.
Description: as §1, §2, §7, §8

Salmonella sp. [9] = assay: Bactericide activity at different contact times; type: cell-based; parameters: key: + = growth; - = no growth; settings: 100 p.p.m.
Description: as §1, §2, §7, §8

Staph. aureus [10] = assay: Bactericide activity at different contact times; type: cell-based; parameters: key: + = growth; - = no growth; settings: 100 p.p.m.
Description: as §1, §2, §7, §8

[11] = Toxicity, LD50 by intraperitoneal route; settings: mouse, in vivo, ip, mice

NC(=NCl)c1ccccc1 [AB5]
MIC (Bacillaceae): 15.6 µg/mL (≈ 101 µM)
MIC (E.coli; strain 2094): 250 µg/mL (≈ 1620 µM)
MIC (E.coli; strain 2096): 250 µg/mL (≈ 1620 µM)
MIC (E.coli; strain 2117): 250 µg/mL (≈ 1620 µM)
MIC (E.coli; strain 2456): 500 µg/mL (≈ 3230 µM)
MIC (E.coli; strain 2568): 500 µg/mL (≈ 3230 µM)
MIC (Enterobacter): 250 µg/mL (≈ 1620 µM)
MIC (Indole-positive Proteus [1]; strain 2075): 250 µg/mL (≈ 1620 µM)
MIC (Indole-positive Proteus [1]; strain 2083): 125 µg/mL (≈ 809 µM)
MIC (Indole-positive Proteus [1]; strain 2105): 500 µg/mL (≈ 3230 µM)
MIC (Indole-positive Proteus [1]; strain 2410): 250 µg/mL (≈ 1620 µM)
MIC (Indole-positive Proteus [1]; strain 2447): 500 µg/mL (≈ 3230 µM)
MIC (Indole-positive Proteus [1]; strain 2674): 500 µg/mL (≈ 3230 µM)
MIC (Pseudomonas aeruginosa [2]; strain 2084): 250 µg/mL (≈ 1620 µM)
MIC (Pseudomonas aeruginosa [2]; strain 2458): 500 µg/mL (≈ 3230 µM)
MIC (Pseudomonas aeruginosa [2]; strain 2488): 250 µg/mL (≈ 1620 µM)
MIC (Pseudomonas aeruginosa [2]; strain 2508): 500 µg/mL (≈ 3230 µM)
MIC (Pseudomonas aeruginosa [2]; strain 2509): 250 µg/mL (≈ 1620 µM)
MIC (Pseudomonas aeruginosa [2]; strain 2670): 500 µg/mL (≈ 3230 µM)
MIC (Salmonella sp. [3]): 250 µg/mL (≈ 1620 µM)
MIC (Serratia marcescens [4]): 31.2 µg/mL (≈ 202 µM)
MIC (Staph. aureus [5]): 250 µg/mL (≈ 1620 µM)
contact time for total bactericide activity (E. coli): ≤ 3 min
Bactericide action (growth / no growth) (E. coli; contact time 3 min): -
Bactericide action (growth / no growth) (E. coli; contact time 5 min): -
Bactericide action (growth / no growth) (E. coli; contact time 10 min): -
Bactericide action (growth / no growth) (E. coli; contact time 30 min): -
Bactericide action (growth / no growth) (E. coli; contact time 60 min): -
Bactericide action (growth / no growth) (E. coli; contact time 120 min): -
contact time for total bactericide activity (Indole-positive Proteus [6]): 60 to 120 min
Bactericide action (growth / no growth) (Indole-positive Proteus [6]; contact time 3 min): +
Bactericide action (growth / no growth) (Indole-positive Proteus [6]; contact time 5 min): +
Bactericide action (growth / no growth) (Indole-positive Proteus [6]; contact time 10 min): -
Bactericide action (growth / no growth) (Indole-positive Proteus [6]; contact time 30 min): -
Bactericide action (growth / no growth) (Indole-positive Proteus [6]; contact time 60 min): -
Bactericide action (growth / no growth) (Indole-positive Proteus [6]; contact time 120 min): -
Bactericide action (growth / no growth) (Serratia marcescens [7]; contact time 3 min): -
Bactericide action (growth / no growth) (Serratia marcescens [7]; contact time 5 min): -
Bactericide action (growth / no growth) (Serratia marcescens [7]; contact time 10 min): -
Bactericide action (growth / no growth) (Serratia marcescens [7]; contact time 30 min): -
Bactericide action (growth / no growth) (Serratia marcescens [7]; contact time 60 min): -
Bactericide action (growth / no growth) (Serratia marcescens [7]; contact time 120 min): -
contact time for total bactericide activity (Pseudomonas aeruginosa [8]): 60 to 120 min
Bactericide action (growth / no growth) (Pseudomonas aeruginosa [8]; contact time 3 min): +
Bactericide action (growth / no growth) (Pseudomonas aeruginosa [8]; contact time 5 min): +
Bactericide action (growth / no growth) (Pseudomonas aeruginosa [8]; contact time 10 min): +
Bactericide action (growth / no growth) (Pseudomonas aeruginosa [8]; contact time 30 min): +
Bactericide action (growth / no growth) (Pseudomonas aeruginosa [8]; contact time 60 min): +
Bactericide action (growth / no growth) (Pseudomonas aeruginosa [8]; contact time 120 min): -
Bactericide action (growth / no growth) (B. subtilis; contact time 3 min): -
Bactericide action (growth / no growth) (B. subtilis; contact time 5 min): -
Bactericide action (growth / no growth) (B. subtilis; contact time 10 min): -
Bactericide action (growth / no growth) (B. subtilis; contact time 30 min): -
Bactericide action (growth / no growth) (B. subtilis; contact time 60 min): -
Bactericide action (growth / no growth) (B. subtilis; contact time 120 min): -
Bactericide action (growth / no growth) (Salmonella sp. [9]; contact time 3 min): +
Bactericide action (growth / no growth) (Salmonella sp. [9]; contact time 5 min): +
Bactericide action (growth / no growth) (Salmonella sp. [9]; contact time 10 min): -
Bactericide action (growth / no growth) (Salmonella sp. [9]; contact time 30 min): -
Bactericide action (growth / no growth) (Salmonella sp. [9]; contact time 60 min): -
Bactericide action (growth / no growth) (Salmonella sp. [9]; contact time 120 min): -
Bactericide action (growth / no growth) (Staph. aureus [10]; contact time 3 min): +
Bactericide action (growth / no growth) (Staph. aureus [10]; contact time 5 min): +
Bactericide action (growth / no growth) (Staph. aureus [10]; contact time 10 min): +
Bactericide action (growth / no growth) (Staph. aureus [10]; contact time 30 min): +
Bactericide action (growth / no growth) (Staph. aureus [10]; contact time 60 min): -
Bactericide action (growth / no growth) (Staph. aureus [10]; contact time 120 min): -
LD50 [11]: 85 mg/kg
